# Experimental data as given in article PMC4138103 (PLoS ONE, 2014).
# Where two headings read alike, the source gives them in different places.
# Tests used:
# Sprague-Dawley rats [1] = assay: Histopathology; format: in vivo, Rattus norvegicus; details: for Emax: Rattus norvegicus; for Large thyroid follicles (%), CED / Large thyroid follicles (%), CED-L: total dose based; for Adrenal zona fasciculata hypertrophy, CED: semi-quantitative staging; for Pituitary frontal lobe vacuoles or extracellular deposits, incidence: top dose (1700 mg/kg bw)
# Excerpt: After fixation, the samples were dehydrated, paraffinized and embedded according to standard sampling and trimming procedures. Sections of 4 µm were stained with hematoxylin and eosin in an automated way. Microscopic observations were done by initial unblinded comparison of control and top dose samples. […] Slide reading for such affected endpoints was refined by blind and/or semi-quantitative scoring.
# For immunohistochemistry of TSH and ACTH in the pituitary routine sections were deparaffinized in a graded series of xylol/ethanol. Endogenous peroxidase activity was blocked in a 1/1 methanol/distilled water solution with 1/100 0.3% H2O2 added. […] Subsequent 60 min incubation with purified rabbit polyclonal IgG against rat TSH (Biogenesis), 1/1600 dilution, or against ACTH (Phoenix Pharmaceuticals), 1/1000 dilution, was followed by incubation with a biotinylated anti-rabbit second antibody in the case of TSH (1/200, 30 min; Vector) and avidin-biotin complex (Vector) according to instructions of the manufacturer; both antisera were diluted in the 1% blocking reagent solution, or with a peroxidase conjugated anti-rabbit second antibody (DAKO) in the case of ACTH. Immunostaining was completed with incubation with a standard diaminobenzidine (Sigma) solution for 5 min and counterstaining with hematoxylin (Mayer procedure). Immunostaining was evaluated by comparing the quantity and staining intensity of positive cells between control and high dose samples.
# Data were also analyzed using the BMD method, which is based on dose-response modeling of the full data set using a nested family of exponential and Hill models. The analyses were done on data of males and females combined, using sex as a covariate. […] In that case, different Critical Effect Doses (CEDs) and CEDs at the lowest bound of the confidence interval (CED-L) were generated for each sex. If no difference between sexes is detected, a CED and CED-Ls for the combined data is generated. However, this was also done if the curve fits are close, and separate analyses for males and females were then performed manually. CEDs and CED-Ls were calculated at the predefined Critical Effect Size (CES) of 5% (EFSA standard) or 10%.
# Sprague-Dawley rats [2] = assay: Sperm analyses, cauda epididymis; format: in vivo, Rattus norvegicus; details: males
# Method: Frozen right cauda epididymides were homogenized for 2 min using Ultra Turrax homogenizer (model T25 basic, IKA-WERKE GmbH, Staufen, Germany) in 20 ml 0.9% saline containing 0.05% Triton X-100 and 0.01% thiomersal. Homogenates were diluted to about 1×10^6 sperms/ml, and counts from 4 hemocytometer chambers were counted and averaged.
# [3] = F, CES 5%, model E4, adipose tissue concentration based
# [4] = F, CES 10%, model E4, adipose tissue concentration based
structure (smiles),measurement,setting,value
"Clc1cc(Cl)c(-c2cc(Cl)c(Cl)c(Cl)c2Cl)cc1Cl [PCB 180, 2,2′,3′,4,4′,5,5′-heptachlorobiphenyl]","CED, Large thyroid follicles (%)",Sprague-Dawley rats [1]; [3],105 µg/g lipid
same,"CED-L, Large thyroid follicles (%)",Sprague-Dawley rats [1]; [3],52.7 µg/g lipid
same,"CED, Large thyroid follicles (%)",Sprague-Dawley rats [1]; [4],218 µg/g lipid
same,"CED-L, Large thyroid follicles (%)",Sprague-Dawley rats [1]; [4],110 µg/g lipid
same,Emax,"Sprague-Dawley rats [1]; F, model E4, controls vs high dose according to the fitted model, read-out: Maximum response, Large thyroid follicles (%)",-70.9%
same,Emax,"Sprague-Dawley rats [1]; females, controls vs high dose, fitted model, read-out: Large thyroid follicles (%), Maximum response",-71%
same,"Hyperemia of inner zones of adrenal cortex, CEDL",Sprague-Dawley rats [1]; females,2526 mg/kg bw
same,"Activation of adrenal zona fasciculata, difference in CED values between genders","Sprague-Dawley rats [1]; females more sensitive, semi-quantitative evaluation",297 fold
same,"Large thyroid follicles (%), CED","Sprague-Dawley rats [1]; females, CES 5%",22.6 mg/kg bw
same,"Large thyroid follicles (%), CED-L","Sprague-Dawley rats [1]; females, CES 5%",11.6 mg/kg bw
same,"Large thyroid follicles (%), CED","Sprague-Dawley rats [1]; females, CES 10%",131 mg/kg bw
same,"Large thyroid follicles (%), CED-L","Sprague-Dawley rats [1]; females, CES 10%",81.0 mg/kg bw
same,"Area of large thyroid follicles, CED","Sprague-Dawley rats [1]; females, adipose tissue concentration based",105 µg/g lipid
same,"Thyroid follicle depletion in females, CED (Fig. 7C)","Sprague-Dawley rats [1]; females, legend says CES 5%",131
same,"Thyroid follicle depletion in females, CED-L05 (Fig. 7C)","Sprague-Dawley rats [1]; females, legend says CES 5%",80.5
same,"Thyroid follicle depletion in females, CED-L95 (Fig. 7C)","Sprague-Dawley rats [1]; females, legend says CES 5%",213.3
same,"Adrenal zona fasciculata hypertrophy, CED",Sprague-Dawley rats [1]; females,2.0 mg/kg bw
same,"Pituitary frontal lobe vacuoles or extracellular deposits, incidence",Sprague-Dawley rats [1]; females,2/5
same,"Adrenal zona fasciculata hypertrophy, CED",Sprague-Dawley rats [1]; males,594 mg/kg bw
same,"Pituitary frontal lobe vacuoles or extracellular deposits, incidence",Sprague-Dawley rats [1]; males,4/5
same,Cauda epididymal sperm density,Sprague-Dawley rats [2]; 1700 mg/kg bw vs control,not affected
same,Sperm density,"Sprague-Dawley rats [2]; total dose 1700 mg/kg bw, cauda epididymis, group mean",691 106/g tissue
same,Sperm count,"Sprague-Dawley rats [2]; total dose 1700 mg/kg bw, group mean",94.0 106/cauda epididymis
